Measurements reported in ChEMBL document CHEMBL3351308, “Allosteric modulation of the G protein-coupled US28 receptor of human cytomegalovirus: are the small-weight inverse agonist of US28 'camouflaged' agonists?” (Bioorg Med Chem Lett, 2014).
Where a chain is given by its changes, count along the chain named. The source made the active and inactive calls. No cut-off for these calls is given here.

Columns and labels:
[1] = molecular target: T1, G-protein coupled receptor homolog US28 (Human cytomegalovirus (strain AD169) (HHV-5) (Human herpesvirus 5)) (UniProt P69332); experiment: Allosteric modulatory activity at FLAG-tagged wild type human cytomegalovirus US28 receptor expressed in HEK293T cells by PathDetectElk1 assay relative to basal level; format: cell-based; set-up: concentration or dose not given beside the values; details: Human betaherpesvirus 5; HEK-293T
T1 sequence (whole entry): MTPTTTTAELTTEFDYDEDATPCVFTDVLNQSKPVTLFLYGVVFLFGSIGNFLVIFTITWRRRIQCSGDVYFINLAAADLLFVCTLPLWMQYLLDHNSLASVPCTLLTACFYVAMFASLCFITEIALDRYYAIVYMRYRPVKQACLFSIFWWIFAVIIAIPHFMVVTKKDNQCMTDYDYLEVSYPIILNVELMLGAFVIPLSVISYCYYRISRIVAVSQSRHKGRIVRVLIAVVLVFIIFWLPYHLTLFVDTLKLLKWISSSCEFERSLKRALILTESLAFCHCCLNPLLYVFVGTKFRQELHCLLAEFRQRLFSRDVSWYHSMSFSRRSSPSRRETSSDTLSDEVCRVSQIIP

[2] = molecular target: T2, G-protein coupled receptor homolog US28 (Human cytomegalovirus (strain AD169) (HHV-5) (Human herpesvirus 5), UniProt P69332); experiment: Allosteric modulatory activity at FLAG-tagged wild type human cytomegalovirus US28 receptor expressed in HEK293T cells by PathDetectElk1 assay; format: cell-based, Human betaherpesvirus 5, HEK-293T
T2 sequence (P69332 whole entry): T1 sequence (whole entry)

[3] = molecular target: G protein-coupled receptor (Human betaherpesvirus 5, UniProt Q9IP65); experiment: Allosteric modulatory activity at FLAG-tagged human cytomegalovirus US28 receptor delta300 mutant expressed in HEK293T cells by PathDetectElk1 assay; format: cell-based; details: hek-293t
[4] = molecular target: T3, G protein-coupled receptor (Human betaherpesvirus 5) (UniProt Q9IP65); experiment: Allosteric modulatory activity at FLAG-tagged human cytomegalovirus US28 receptor delta300 mutant expressed in HEK293T cells by PathDetectElk1 assay relative to basal level; format: cell-based; details: HEK-293T
T3 sequence (whole entry): T1 sequence (whole entry) with T21A, F25L, D170N, R267K, V346A

[5] = molecular target: T3, G protein-coupled receptor (Human betaherpesvirus 5); experiment: Increase in CX3CL1/Fractalkine binding to FLAG-tagged human cytomegalovirus US28 receptor delta300 mutant expressed in HEK293T cells; format: cell-based; details: HEK-293T
[6] = molecular target: T3, G protein-coupled receptor (Human betaherpesvirus 5); experiment: Effect on CX3CL1/Fractalkine binding to FLAG-tagged human cytomegalovirus US28 receptor delta300 mutant expressed in HEK293T cells; format: cell-based; details: HEK-293T
[7] = molecular target: T3, G protein-coupled receptor (Human betaherpesvirus 5); experiment: Allosteric modulatory activity at FLAG-tagged human cytomegalovirus US28 receptor delta300 mutant expressed in HEK293T cells at 10 uM in presence of CX3CL1/Fractalkine by PathDetectElk1 assay; format: cell-based; details: HEK-293T
[8] = molecular target: T3, G protein-coupled receptor (Human betaherpesvirus 5); experiment: Allosteric modulatory activity at FLAG-tagged human cytomegalovirus US28 receptor delta300 mutant expressed in HEK293T cells assessed as reduction in CCL5/Rantes-induced response by PathDetectElk1 assay; format: cell-based; details: HEK-293T
[9] = molecular target: T3, G protein-coupled receptor (Human betaherpesvirus 5); experiment: Allosteric modulatory activity at FLAG-tagged human cytomegalovirus US28 receptor delta300 mutant expressed in HEK293T cells assessed as reduction in CX3CL1/Fractalkine-induced response by PathDetectElk1 assay; format: cell-based; details: HEK-293T

Sequence of G protein-coupled receptor (Q9IP65 1-354): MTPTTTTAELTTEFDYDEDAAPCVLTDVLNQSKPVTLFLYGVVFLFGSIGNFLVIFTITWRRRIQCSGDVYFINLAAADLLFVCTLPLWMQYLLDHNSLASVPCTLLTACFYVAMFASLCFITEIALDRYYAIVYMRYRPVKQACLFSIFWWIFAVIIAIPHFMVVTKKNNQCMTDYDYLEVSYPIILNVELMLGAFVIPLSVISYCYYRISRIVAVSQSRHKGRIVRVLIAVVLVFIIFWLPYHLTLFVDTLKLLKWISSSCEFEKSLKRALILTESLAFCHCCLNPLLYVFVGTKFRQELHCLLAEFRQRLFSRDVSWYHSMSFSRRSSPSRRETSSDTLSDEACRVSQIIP

SMILES	Efficacy [1] [%]	EC50 [2] [nM]	EC50 [3] [nM]	pEC50 [3]	Efficacy [4] [%]	Activity [5]	Activity [6]	Activity [7]	Activity [8]	Activity [9]
CSc1ccc2c(c1)C(N1CCN(C)CC1)Cc1ccccc1S2 (stereo not given) [METITEPINE]	10	350	330	6.48	110	–	–	–	–	–
N#CC(CCCN1CCC(O)(c2ccc(Cl)cc2)CC1)(c1ccccc1)c1ccccc1 [BERLEX COMPOUND]	-22	4500	> 10000	< 5	> 180	–	–	–	–	–
CC1(CO)Cc2ccccc2C(=O)N1c1ccccc1 (stereo not given)	41	4400	930	6.03	27	Active	–	–	–	–
CCCCCCCCCC(=O)N(CCN(C)C)CC1(C)Cc2ccccc2C(=O)N1 (stereo not given)	-20	1500	> 10000	< 5	> 180	–	–	–	–	–
CC1(CCO)Cc2ccccc2C(=O)N1c1ccccc1 (stereo not given)	-14	1000	3100	5.51	-21	–	–	–	–	–
CC1(COC(=O)Cc2ccccc2)Cc2ccccc2CN1C(=O)Cc1ccccc1 (stereo not given)	-37	3400	2500	5.59	-29	–	inactive	inactive	Active	Dose-dependent effect
